# Assay results from ChEMBL document CHEMBL1201862, “PubChem BioAssay data set” (2004).
#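 Protocol summary: plate cells (96-well), add compound at 5 concentrations, incubate 48 h, interpolate endpoints linearly. GI50: concentration for 50% inhibition of growth.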 Calls of active or inactive are those of the source. No stated cut-off is given here; in the data, active = GI50 up to about 1.1 µM and inactive = higher.
# Assays:
# Test in all cases: NCI-60 cell line screen, 48 h
# 786-0 = test system: 786-0
# A498 = test system: A498
# A549 = test system: A549
# ACHN = test system: ACHN
# CAKI-1 = test system: CAKI-1
# CCRF-CEM = test system: CCRF-CEM
# COLO 205 = test system: COLO 205
# DLD-1 = test system: DLD-1
# DMS-114 = test system: DMS-114
# EKVX = test system: EKVX
# HCC 2998 = test system: HCC 2998
# HCT-116 = test system: HCT-116
# HCT-15 = test system: HCT-15
# HL-60 = test system: HL-60
# HOP-18 = test system: HOP-18
# HOP-62 = test system: HOP-62
# HOP-92 = test system: HOP-92
# HT-29 = test system: HT-29
# IGROV-1 = test system: IGROV-1
# K562 = test system: K562
# KM-20L2 = test system: KM-20L2
# KM12 = test system: KM12
# LOX IMVI = test system: LOX IMVI
# LXFL 529 = test system: LXFL 529
# M14 = test system: M14
# M19-MEL = test system: M19-MEL
# MOLT-4 = test system: MOLT-4
# Malme-3M = test system: Malme-3M
# NCI-H226 = test system: NCI-H226
# NCI-H23 = test system: NCI-H23
# NCI-H460 = test system: NCI-H460
# NCI-H522 = test system: NCI-H522
# OVCAR-3 = test system: OVCAR-3
# OVCAR-4 = test system: OVCAR-4
# OVCAR-5 = test system: OVCAR-5
# OVCAR-8 = test system: OVCAR-8
# RPMI-8226 = test system: RPMI-8226
# RXF 393 = test system: RXF 393
# RXF 631 = test system: RXF 631
# SF-268 = test system: SF-268
# SF-295 = test system: SF-295
# SF-539 = test system: SF-539
# SK-MEL-28 = test system: SK-MEL-28
# SK-MEL-2 = test system: SK-MEL-2
# SK-MEL-5 = test system: SK-MEL-5
# SK-OV-3 = test system: SK-OV-3
# SN12C = test system: SN12C
# SNB-19 = test system: SNB-19
# SNB-75 = test system: SNB-75
# SNB-78 = test system: SNB-78
# SR = test system: SR
# SW-620 = test system: SW-620
# TK-10 = test system: TK-10
# U-251 = test system: U-251
# UACC-257 = test system: UACC-257
# UACC-62 = test system: UACC-62
# UO-31 = test system: UO-31
# DMS-273 = test system: DMS-273
# XF498 = test system: XF498
smiles,measurement,setting,value
CC(C)(c1ccc(OC#N)cc1)c1ccc(OC#N)cc1,GI50,786-0,> 100 µM (inactive)
same,GI50,A498,> 100 µM (inactive)
same,GI50,A549,> 100 µM (inactive)
same,GI50,ACHN,> 100 µM (inactive)
same,GI50,CAKI-1,> 100 µM (inactive)
same,GI50,CCRF-CEM,> 55.7 µM (inactive)
same,GI50,COLO 205,> 46.6 µM (inactive)
same,GI50,DLD-1,> 56.8 µM (inactive)
same,GI50,DMS-114,> 41.5 µM (inactive)
same,GI50,EKVX,> 100 µM (inactive)
same,GI50,HCC 2998,> 100 µM (inactive)
same,GI50,HCT-116,> 44.1 µM (inactive)
same,GI50,HCT-15,20.3 µM
same,GI50,HL-60,> 55 µM (inactive)
same,GI50,HOP-18,> 100 µM (inactive)
same,GI50,HOP-62,> 100 µM (inactive)
same,GI50,HOP-92,> 100 µM (inactive)
same,GI50,HT-29,> 100 µM (inactive)
same,GI50,IGROV-1,> 100 µM (inactive)
same,GI50,K562,> 70 µM (inactive)
same,GI50,KM-20L2,> 74.6 µM (inactive)
same,GI50,KM12,> 100 µM (inactive)
same,GI50,LOX IMVI,> 48.4 µM (inactive)
same,GI50,LXFL 529,> 100 µM (inactive)
same,GI50,M14,> 100 µM (inactive)
same,GI50,M19-MEL,> 82.6 µM (inactive)
same,GI50,MOLT-4,> 100 µM (inactive)
same,GI50,Malme-3M,> 100 µM (inactive)
same,GI50,NCI-H226,> 100 µM (inactive)
same,GI50,NCI-H23,> 100 µM (inactive)
same,GI50,NCI-H460,> 58.7 µM (inactive)
same,GI50,NCI-H522,23.2 µM (inactive)
same,GI50,OVCAR-3,> 100 µM (inactive)
same,GI50,OVCAR-4,> 100 µM (inactive)
same,GI50,OVCAR-5,> 100 µM (inactive)
same,GI50,OVCAR-8,> 100 µM (inactive)
same,GI50,RPMI-8226,> 52.6 µM (inactive)
same,GI50,RXF 393,> 87.9 µM (inactive)
same,GI50,RXF 631,> 100 µM (inactive)
same,GI50,SF-268,> 66.5 µM (inactive)
same,GI50,SF-295,> 100 µM (inactive)
same,GI50,SF-539,> 100 µM (inactive)
same,GI50,SK-MEL-28,> 100 µM (inactive)
same,GI50,SK-MEL-2,> 100 µM (inactive)
same,GI50,SK-MEL-5,> 100 µM (inactive)
same,GI50,SK-OV-3,> 100 µM (inactive)
same,GI50,SN12C,> 100 µM (inactive)
same,GI50,SNB-19,> 100 µM (inactive)
same,GI50,SNB-75,> 52.5 µM (inactive)
same,GI50,SNB-78,> 100 µM (inactive)
same,GI50,SR,27 µM (inactive)
same,GI50,SW-620,> 100 µM (inactive)
same,GI50,TK-10,> 100 µM (inactive)
same,GI50,U-251,> 68.5 µM (inactive)
same,GI50,UACC-257,> 100 µM (inactive)
same,GI50,UACC-62,> 100 µM (inactive)
same,GI50,UO-31,> 100 µM (inactive)
Nc1ncnc2c(C3OC(CO)C(O)C3O)scc12 (stereo not given),GI50,786-0,0.217 µM (active)
same,GI50,A498,0.0316 µM (active)
same,GI50,A549,0.00721 µM (active)
same,GI50,ACHN,0.0877 µM (active)
same,GI50,CAKI-1,< 0.01 µM (active)
same,GI50,CCRF-CEM,0.0597 µM (active)
same,GI50,COLO 205,0.026 µM (active)
same,GI50,DLD-1,0.00212 µM (active)
same,GI50,DMS-114,0.0292 µM (active)
same,GI50,DMS-273,0.00377 µM (active)
same,GI50,EKVX,1.04 µM (active)
same,GI50,HCC 2998,0.00504 µM (active)
same,GI50,HCT-116,0.00885 µM (active)
same,GI50,HCT-15,0.00278 µM
same,GI50,HL-60,< 0.001 µM (active)
same,GI50,HOP-18,< 0.01 µM (active)
same,GI50,HOP-62,0.133 µM (active)
same,GI50,HOP-92,0.0117 µM (active)
same,GI50,HT-29,0.00458 µM (active)
same,GI50,IGROV-1,0.513 µM (active)
same,GI50,K562,0.00262 µM (active)
same,GI50,KM-20L2,0.00516 µM (active)
same,GI50,KM12,< 0.001 µM (active)
same,GI50,LOX IMVI,0.0566 µM (active)
same,GI50,LXFL 529,0.129 µM (active)
same,GI50,M14,0.00586 µM (active)
same,GI50,M19-MEL,0.369 µM (active)
same,GI50,MOLT-4,0.0767 µM (active)
same,GI50,Malme-3M,2.54 µM (inactive)
same,GI50,NCI-H226,0.0386 µM (active)
same,GI50,NCI-H23,0.152 µM (active)
same,GI50,NCI-H460,0.00615 µM (active)
same,GI50,NCI-H522,0.0107 µM (active)
same,GI50,OVCAR-3,0.00241 µM (active)
same,GI50,OVCAR-4,0.0468 µM (active)
same,GI50,OVCAR-5,0.0222 µM (active)
same,GI50,OVCAR-8,0.00179 µM (active)
same,GI50,RPMI-8226,0.00222 µM (active)
same,GI50,RXF 393,0.222 µM (active)
same,GI50,SF-268,1.77 µM (inactive)
same,GI50,SF-295,0.129 µM (active)
same,GI50,SF-539,4.94 µM (inactive)
same,GI50,SK-MEL-28,0.873 µM (active)
same,GI50,SK-MEL-2,0.0431 µM (active)
same,GI50,SK-MEL-5,0.346 µM (active)
same,GI50,SK-OV-3,< 0.001 µM (active)
same,GI50,SN12C,0.373 µM (active)
same,GI50,SNB-19,1.38 µM (inactive)
same,GI50,SNB-75,0.459 µM (active)
same,GI50,SNB-78,4.31 µM (inactive)
same,GI50,SR,0.319 µM (active)
same,GI50,SW-620,0.0192 µM (active)
same,GI50,TK-10,0.191 µM (active)
same,GI50,U-251,3.78 µM (inactive)
same,GI50,UACC-257,0.0792 µM (active)
same,GI50,UACC-62,0.00321 µM (active)
same,GI50,UO-31,0.57 µM (active)
same,GI50,XF498,0.0282 µM (active)
